Source: patent publication US20190374601A1, “METHODS FOR TREATING FUNGAL INFECTIONS” (priority 2017, published 2019)
Marks after values point to notes of the source that are not given here.

Legend:
Type in all cases: in vivo
[1] = system: T. mentagrophytes ATCC 24953; experiment: Hair root invasion test (mycological evaluation), T. mentagrophytes dermatophytosis guinea pig model, Example 1; conditions: evaluated study day 10, relative to vehicle control
Protocol: (§1) A request was made to the Animal Resource Center (ARC) at Case Western Reserve University to order the required number of male albino Harlan-Sprague-Dawley Guinea-Pigs (San Diego, Calif.) with a body weight of 450-500 g. Animals were allowed to acclimate for a minimum of 5 days prior to use. Environmental controls for the animal room were set to maintain a temperature of 16 to 22° C., a relative humidity of 30-70%, and a 12:12 light-dark cycle.
(§2) T. mentagrophytes ATCC 24953 was used as the infecting fungus. This strain was selected because it can cause skin infection and results in inflammatory reaction.
(§3) T. mentagrophytes (from frozen stock) was sub-cultured on Potato Dextrose Agar plates and incubated at 30° C. for 5-7 days. The colonies were scraped from the plates using sterile normal saline (NaCl 0.85%) solution. After washing for three times with sterile saline the conidia were re-suspended in the same solution. Ten-fold dilutions of conidia suspension were prepared and counted using a hemacytometer. Working suspension of conidia was prepared at a final concentration of 1×10^7 Colony Forming Units (CFUs)/100 μL in normal saline.
(§4) Each animal was anesthetized with a cocktail of xylazine and ketamine: 0.2 mL intramuscularly. Using an electric shaver, hair was clipped on left side of the guinea pig back. A closer shave was done with a disposable razor. Using a stencil, a square of 2.5 cm×2.5 cm was marked. The marked skin area was abraded with sterile fine grit sandpaper. A cell suspension containing 1×10^7 conidia in 100 μL was applied and rubbed thoroughly on the abraded skin.
(§5) Beginning two hours post inoculation, animals were treated subcutaneously (SQ) for CD101 and orally (PO) terbinafine once daily for a period of nine days, or once a week on days 1 and 8.
(§6) Study Day 1: Infected the animals with T. mentagrophytes and begin treatments.
(§7) Study Day 9 (treatment day 9): End treatments.
(§8) Study Day 10: Clinical evaluation of the four quadrants in the marked area was done. Hair samples were obtained from each quadrant (10 per quadrant). Hairs were planted in Potato Dextrose Agar, and incubated for 48 h for mycological evaluation. Procedures for clinical and mycological evaluations are described below.
(§9) CD101 was administered SQ in 0.3 mL, while the terbinafine was given orally in 0.3 mL. Vehicle treated group was also included.
Hair samples were removed with a sterile forceps from four quadrants. Ten hair samples from each quadrant were inoculated onto the corresponding quadrant on the Potato Dextrose agar plate and incubated at 30° C. for 2 days. The fungal growth at the hair root was examined under a stereomicroscope. The effectiveness of a compound in reducing the number of mycologically positive hair sample per treated group is expressed as percentage relative to the vehicle control group of animals using the following formula:
where, T=Positive hair in the test group, K=Positive hair in the Untreated control.

T. mentagrophytes [2] = experiment: Clinical evaluation of infected skin, T. mentagrophytes dermatophytosis guinea pig model, different doses once weekly, Example 2; conditions: 10 mg/kg PO days 1 and 8, evaluated study day 12, relative to vehicle control
Protocol: (§10) Procedures for animal care and use, preparation of standard inoculum, and infection of the animals were carried out following the same steps as described in Example 1.
(§11) Infected guinea pigs were randomized into the following (1)-(5) groups (10 per group) (see Table 4): (1) a vehicle control (water+mannitol); (2) terbinafine 10 mg/kg PO days 1 and 8, as a positive control; (3) CD101 10 mg/kg SQ days 1 and 8; (4) CD101 20 mg/kg SQ days 1 and 8; and (5) CD101 40 mg/kg SQ days 1 and 8.
(§12) Animals were treated with CD101 SQ or PO (for terbinafine) once a week on days 1 and 8.
(§13) Study Day 1: Infect the animals with T. mentagrophytes and begin treatments.
(§14) Study Day 8: Last treatment.
(§15) Study Day 12: Clinical evaluation of the four quadrants in the marked area is done. Hair samples were obtained from each quadrant. Hairs (10 per quadrant) were planted in Potato Dextrose Agar, and incubated for 48 h for mycological evaluation. Procedures for clinical and mycological evaluations are described below.
(§16) The compounds was administered SQ or PO (0.3 mL/kg […]).
(§17) Clinical assessment of local changes of the infected skin area was scored as follows:
(§18) 1=Few slightly erythematous places on the skin
(§19) 2=Well-defined redness, swelling with bristling hairs.
(§20) 3=Large areas or marked redness incrustation, scaling, bald patches, ulcerated in places.
(§21) 4=Partial damage to the integument and loss of hair
(§22) 5=Extensive damage to the integument and complete loss of hair at the site of infection.
Any other local skin reactions were noted. The assessment of clinical evaluation in the change of scores per treatment group was expressed as percentage relative to the untreated control group of animals using the following formula:
where T=Scores in the test group. K=Scores in the untreated control

[3] = system: T. mentagrophytes ATCC 24953; experiment: Clinical evaluation of infected skin, T. mentagrophytes dermatophytosis guinea pig model, Example 1; conditions: evaluated study day 10, relative to vehicle control
Protocol: as §1, §2, §3, §4, §5, §6, §7, §8, §9, §17, §18, §19, §20, §21, §22
Any other local skin reactions were noted. The assessment of clinical evaluation in the change of scores per treatment group is expressed as percentage relative to the vehicle control group of animals using the following formula:
where, T=Scores in the test group. K=Scores in the untreated control

T. mentagrophytes [4] = experiment: Hair root invasion test (mycological evaluation), T. mentagrophytes dermatophytosis guinea pig model, different doses once weekly, Example 2; conditions: 10 mg/kg PO days 1 and 8, evaluated study day 12, relative to vehicle control
Protocol: as §10, §11, §12, §13, §14, §15, §16
Hair samples were removed with sterile forceps from four quadrants. Ten hair samples from each quadrant were inoculated onto the corresponding quadrant on the Potato Dextrose agar plate and incubated at 30° C. for 2 days. The fungal growth at the hair root was examined under a stereomicroscope. The effectiveness of a compound in reducing the number of mycologically positive hair sample per treated group was expressed as percentage relative to the untreated control group of animals using the following formula:
where T=Positive hair in the test group, K=Positive hair in the Untreated control.

[5] = 10 mg/kg PO daily for nine days
[6] = 10 mg/kg PO daily for nine days, listed as terbinafine
[7] = 10 mg/kg PO once a week (days 1 and 8)
[8] = 10 mg/kg PO once a week (days 1 and 8), listed as terbinafine

## CN(C/C=C/C#CC(C)(C)C)Cc1cccc2ccccc12 [Terbinafine, terbinafine, reference compound]
[1]; [5]
  Percent Efficacy Mycological: 91.6* %
[1]; [6]
  Percent Efficacy Mycological: 91.6%
[1]; [7]
  Percent Efficacy Mycological: 83.1* %
[1]; [8]
  Percent Efficacy Mycological: 83.1%
T. mentagrophytes [2]
  Percent Efficacy Clinical: 76.8* %
T. mentagrophytes [2]; listed as terbinafine
  Percent Efficacy Clinical: 76.8%
[3]; [5]
  Percent Efficacy Clinical: 78.7* %
[3]; [6]
  Percent Efficacy Clinical: 78.7%
[3]; [7]
  Percent Efficacy Clinical: 60.6* %
[3]; [8]
  Percent Efficacy Clinical: 60.6%
T. mentagrophytes [4]
  Percent Efficacy Mycological: 54.2* %
T. mentagrophytes [4]; listed as terbinafine
  Percent Efficacy Mycological: 54.2%
